These results are taken from ChEMBL document CHEMBL2396555, “Synthesis and acrosin inhibitory activities of 5-phenyl-1H-pyrazole-3-carboxylic acid amide derivatives” (Bioorg Med Chem Lett, 2013).

The target of this assay is Acrosin (Homo sapiens, UniProt P10323). The assay is described as follows: Inhibition of human sperm acrosin using BAPNA as substrate after 3 hrs by spectrophotometric analysis.
Chain of Acrosin (P10323 20-42 limits assumed): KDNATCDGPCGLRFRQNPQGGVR
Chain of Acrosin (P10323 43-343 limits assumed): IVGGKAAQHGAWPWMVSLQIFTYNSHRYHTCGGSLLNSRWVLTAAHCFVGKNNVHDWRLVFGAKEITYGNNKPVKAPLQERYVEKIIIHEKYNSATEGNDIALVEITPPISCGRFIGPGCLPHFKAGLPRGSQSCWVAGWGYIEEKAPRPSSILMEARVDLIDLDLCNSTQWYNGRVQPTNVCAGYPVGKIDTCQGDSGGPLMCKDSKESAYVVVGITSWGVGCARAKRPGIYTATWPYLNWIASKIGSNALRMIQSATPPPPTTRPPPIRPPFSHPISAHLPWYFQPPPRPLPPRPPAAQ
Regarding `O=Cc1cc(-c2ccc(Cl)cc2Cl)on1`, the IC50 was 390 µM. The result for `O=C(NCCO)c1cc(-c2ccc(Br)cc2)[nH]n1` reads 530 µM; that for `O=C(c1cc(-c2ccc([N+](=O)[O-])cc2)[nH]n1)N(CCO)CCO`, 5600 µM. The compound `O=C(NCCO)c1cc(-c2ccc([N+](=O)[O-])cc2)[nH]n1` came in with a 50% inhibitory concentration (IC50) of 2700 µM. Next, `O=C(c1cc(-c2cccc([N+](=O)[O-])c2)[nH]n1)N(CCO)CCO`: 2400 µM. As for `O=C(NCCOCCO)c1cc(-c2ccc(Br)cc2)[nH]n1`, the IC50 was determined as 10000 µM. In the case of `CC(C)(CO)NC(=O)c1cc(-c2ccc([N+](=O)[O-])cc2)[nH]n1`, the IC50 is 1875 µM.

Compound `COc1ccc(-c2cc(C(=O)NCCOCCO)n[nH]2)cc1` had an IC50 of 6020 µM. Compared with the last compound, the IC50 is about 3.2-fold higher. Next, `O=C(NCCO)c1cc(-c2ccccc2)[nH]n1`: 2800 µM; `O=C(NC(CO)(CO)CO)c1cc(-c2cccc([N+](=O)[O-])c2)[nH]n1`: 760 µM. On to `CC(O)CNC(=O)c1cc(-c2ccc(Br)cc2)[nH]n1` (stereo not drawn), for which the IC50 turned out to be 330 µM. The result for `COc1ccc(-c2cc(C(=O)NCCO)n[nH]2)cc1` reads 90 µM; that for `CC(CO)NC(=O)c1cc(-c2ccccc2)[nH]n1` (stereo not drawn), 3000 µM; that for `CC(O)CN(CC(C)O)C(=O)c1cc(-c2ccc([N+](=O)[O-])cc2)[nH]n1` (stereo not drawn), 1210 µM. The result for `O=C(c1cc(-c2ccccc2)[nH]n1)N(CCO)CCO` reads 1700 µM. With `CC(CO)NC(=O)c1cc(-c2ccc(Br)cc2)[nH]n1` (stereo not drawn), the IC50 is 880 µM. The result for `CN(CCO)C(=O)c1cc(-c2ccc([N+](=O)[O-])cc2)[nH]n1` reads 2000 µM; that for `O=C(NCCCO)c1cc(-c2ccccc2)[nH]n1`, 540 µM; that for `O=C(NC(CO)(CO)CO)c1cc(-c2ccc([N+](=O)[O-])cc2)[nH]n1`, 5220 µM. Compound `CC(O)CNC(=O)c1cc(-c2ccc([N+](=O)[O-])cc2)[nH]n1` (stereo not drawn) showed a half-inhibitory concentration (IC50) of 2950 µM.

The compound `O=C(NCCOCCO)c1cc(-c2cccc([N+](=O)[O-])c2)[nH]n1` showed an IC50 of 9100 µM. Against the preceding compound, the IC50 is about 3.1-fold higher. The compound `O=C(NCCCO)c1cc(-c2cccc([N+](=O)[O-])c2)[nH]n1` showed an IC50 of 780 µM. The result for `O=C(c1cc(-c2ccc(Br)cc2)[nH]n1)N(CCO)CCO` reads 1520 µM; that for `CC(O)CNC(=O)c1cc(-c2cccc([N+](=O)[O-])c2)[nH]n1` (stereo not drawn), 1830 µM. For the compound `CC(O)CN(CC(C)O)C(=O)c1cc(-c2ccccc2)[nH]n1` (stereo not drawn), the IC50 turned out to be 10 µM. The result for `O=C(NCCOCCO)c1cc(-c2ccc([N+](=O)[O-])cc2)[nH]n1` reads 2070 µM. Take `CN(CCO)C(=O)c1cc(-c2cccc([N+](=O)[O-])c2)[nH]n1`: the half-maximal inhibitory concentration (IC50) worked out at 790 µM. In turn, `O=C(NCCCO)c1cc(-c2ccc([N+](=O)[O-])cc2)[nH]n1` registered a half-maximal inhibitory concentration (IC50) of 3070 µM.

`O=C(NCCO)c1cc(-c2cccc([N+](=O)[O-])c2)[nH]n1` returned an IC50 of 760 µM. This IC50 is about 4-fold lower than that of the compound before.

Turning to `O=C(NC(CO)(CO)CO)c1cc(-c2ccccc2)[nH]n1`, the IC50 is 940 µM.

Consider `COc1ccc(-c2cc(C(=O)N(C)CCO)n[nH]2)cc1`, for which the IC50 came to 410 µM. Next, `CC(O)CNC(=O)c1cc(-c2ccccc2)[nH]n1` (stereo not drawn): 60 µM; `O=C(NCCCO)c1cc(-c2ccc(Br)cc2)[nH]n1`: 380 µM.

For orientation: IC50 means the concentration at which inhibition is half-maximal.
